Results from a melting point compilation (Tetko et al.).

melting point [°C]	SMILES
206 to 208	Cc1cc(=O)oc2cc(OCC(=O)O)ccc12
210 to 212	Cc1cc(Cl)n2c(nc3ccccc32)c1C#N
180 to 182	NC(=O)C1NCCc2ccccc21 (configuration not stated)
44 to 46	c1cc2c(s1)CCNC2C1CC1 (configuration not stated)
239 to 241	CN(C)C(C)(C(=O)O)c1ccc(Cl)cc1 (configuration not stated)
176 to 178	Nc1nc2c(s1)CNCC2
230 to 232	O=c1[nH]c(CCl)nc2scc(-c3ccco3)c12
183 to 185	O=C(O)c1ccccc1NCc1ccccc1Cl
96 to 98	O=Cc1ccc(OCc2ccccc2)c(Br)c1
75 to 77	COC(=O)c1cn(CCCC#N)nn1
170 to 180	O=C(O)CCNS(=O)(=O)c1ccc2ccccc2c1
289 to 291	Cc1[nH]c2ccc(Oc3ccccc3)cc2c(=O)c1C
107 to 109	COC(=O)c1ccc(N)cc1Cl
174 to 176	COc1ccc(Cc2nnc(N)s2)cc1
270 to 272	NC1=C(c2nc3ccccc3[nH]2)C(=O)CN1NC(=O)c1cccs1
180 to 182	Cc1sc(NC(=O)CCl)c(C#N)c1C
157 to 159	COC(=O)c1cc(Cl)c2cc(Cl)ccc2n1
148 to 152	Cc1ccc2c(CC(=O)O)coc2c1C
110 to 112	CCc1cc(NN)nc(-c2ccccn2)n1
104 to 106	CCOc1cc(/C=N/O)ccc1O
120 to 122	Oc1ccccc1OCc1cscn1
165 to 167	NC(=O)CC1CCCCC1
120 to 122	Nc1cccc(OCC(=O)Nc2ccccc2)c1
156 to 158	CCOC(=O)Cc1nnc(N)s1

melting point [°C]	SMILES
165 to 167	N#Cc1ccc(N2CCN(c3ccccn3)CC2)nc1
264 to 266	O=C(O)c1ccc(-c2cc(F)c(F)c(F)c2)cc1
123 to 125	Cc1ccnc(-c2cccc(N)c2)n1
87 to 89	CCOC(=O)c1sc2nc(C)nn2c1C
144 to 146	c1c[nH]c(C2CCCCN2)n1 (configuration not stated)
120 to 122	Nc1cc(-c2ccco2)nn1-c1ccc(F)cc1F
159 to 161	CC(Cl)C(=O)NCCc1ccc(S(N)(=O)=O)cc1 (configuration not stated)
121 to 123	CS(=O)(=O)Nc1cc(F)ccc1N
194 to 196	Cc1cccc(-n2c(C)cc(C(=O)O)c2C)c1
154 to 156	Clc1cc(Cl)cc(-c2nnc(Br)s2)c1
159 to 161	O=C(O)c1csc2c1CCCC2
192 to 194	O=c1cc2c(n[nH]1)CCCC2
158 to 160	Nc1ccc(-n2ncc3ccccc32)cc1
136 to 138	O=C(O)c1ccc(CS)c(F)c1
73 to 77	Nc1ncc(Cc2cccc(C(F)(F)F)c2)s1
99 to 101	O=C(CN1CCNCC1)Nc1ccccc1Cl
49 to 51	CCc1c(N)cnn1C
88 to 90	COC(=O)c1cc(Br)c(N)s1
123 to 125	COc1nc2cc(N)ccc2o1
79 to 81	COC(=O)c1cnn2ccccc12
118 to 120	NS(=O)(=O)CCc1ccc([N+](=O)[O-])cc1
135 to 137	Nc1cccnc1Nc1ccccc1
40 to 42	CCCS(=O)(=O)NC(C(=O)OCC)C(=O)OCC
69 to 71	CC(C)(C)Sc1ccc(C#N)cn1

melting point [°C]	SMILES
90 to 92	CNc1ccc([N+](=O)[O-])c(C)c1
137 to 139	CS(=O)(=O)Cc1ccc(Cl)c(N)c1
179 to 181	O=Cc1ccc2cn[nH]c2c1
131 to 133	Cc1c(NC(=O)CCCl)cccc1[N+](=O)[O-]
144 to 146	O=C(O)c1ccc(Oc2ccccc2Cl)cc1
178 to 180	CCOc1ccc(S(=O)(=O)NCCC(=O)O)cc1
181 to 183	O=S1(=O)N=C2CCCCCN2C(CCl)N1 (configuration not stated)
76 to 78	CSc1c[nH]nc1N
178 to 180	CC1CSc2ccccc2NC1=O (configuration not stated)
304 to 306	O=C(O)c1cccc(NC(=O)c2cccnc2)c1
121 to 123	Cn1cc(S(N)(=O)=O)cn1
56 to 58	CC(=O)N(c1nc(CCl)cs1)C1CC1
141 to 143	O=C(O)COc1ccc(C(=O)c2ccccc2Cl)cc1
252 to 254	Cc1nnc(Cl)n1-c1ccccc1
119 to 121	Cc1ccc(OCCC(=O)O)c(Br)c1
177 to 179	NC(=O)c1ccc(-c2nc(CCl)cs2)cc1
131 to 133	CC(C)(C)OC(=O)NCc1ccc(C(=O)O)o1
155 to 157	CC(C)CNc1nnc(S)s1
219 to 221	O=C(O)c1cnc2n1CCCC2
84 to 86	CNCc1ccc(N)nc1
53 to 55	CCS(=O)(=O)CCn1ccc(N)n1
74 to 76	N#Cc1ccnc(Cl)c1[N+](=O)[O-]
230 to 232	O=C(O)CCCNC(=O)c1ccc2[nH]nnc2c1
168 to 170	Cn1cnnc1Sc1ccc(N)cc1Cl

melting point [°C]	SMILES
144 to 146	NNS(=O)(=O)Cc1ccc(F)cc1
150 to 152	O=C(Nc1ccccc1)C(Cl)c1ccccc1 (configuration not stated)
203 to 207	CC1(c2ccc(Cl)c(Cl)c2)NC(=O)NC1=O (configuration not stated)
76 to 78	Fc1cc(F)c2cccnc2c1
153 to 155	CC(C)c1ccc(C2(C(=O)O)CCCC2)cc1
104 to 106	COc1ccccc1OCC(=O)Nc1cccc(N)c1
57 to 59	CC(C)CNC(=O)CC#N
60 to 62	CC(N)(C#N)Cn1cc(Br)cn1 (configuration not stated)
74 to 76	CC1CN(S(=O)(=O)Cl)CC(C)O1 (configuration not stated)
189 to 191	NC(=O)Nc1cccnc1
101 to 103	CN(CC(=O)O)C1CC1
159 to 161	CCc1c(C(=O)O)cnn1-c1ccccc1
177 to 179	O=C(O)c1cccnc1Oc1ccc(Br)cc1
135 to 137	COc1ccc(-c2nn(-c3ccccc3)cc2C=O)cc1
99 to 101	O=C(O)c1cnoc1
195 to 197	N#Cc1cc2c(nc1N)CCCC2
88 to 90	Nc1cccc(CS(=O)C2CCCCC2)c1 (configuration not stated)
205 to 215	CC1CCCC(C)N1C(=O)COc1ccc(C(=O)O)cc1 (configuration not stated)
219 to 221	NNc1nc2cc(C(F)(F)F)ccc2s1
61 to 63	Cc1nn(-c2ccccc2)c(C)c1N
114 to 116	CC(C)(C)C(=O)COc1ccc([N+](=O)[O-])cc1Cl
91 to 93	Cc1cccc([N+](=O)[O-])c1S(=O)(=O)Cl
206 to 208	O=C(O)CNC(=O)Cn1cncn1
69 to 71	O=C(O)CCCc1nnc(-c2ccccc2I)o1

melting point [°C]	SMILES
63 to 65	CCOc1ccc(N)cc1Cl
84 to 86	CC(C)c1ccccc1OCCC(=O)O
70 to 72	C#CCOc1ccccc1C=O
66 to 68	COc1ccc(C(=O)C(C)Br)cc1 (configuration not stated)
98 to 100	O=S(=O)(Cl)c1ccc2nc(Cl)sc2c1
168 to 170	C/C(=N\O)c1ccc(-c2cccc(Br)c2)s1
54 to 56	NCC1(CO)CCOCC1
130 to 132	O=C1C(=O)N(Cc2ccccc2Cl)c2ccccc21
71 to 73	O=[N+]([O-])c1cc(I)ccc1Cl
114 to 116	CN(C)c1ncnc(Cl)c1N
91 to 93	Cc1cc(N)n(C2CCOC2)n1 (configuration not stated)
228 to 230	COC(=O)Cn1cnc2c(N)ncnc21
283 to 285	CN1CCC2(CC1)NC(=O)NC2=O
169 to 171	NC(=O)CN(Cc1ccccc1)c1cccc(N)c1
147 to 149	COc1ccc(CNc2nccs2)cc1
50 to 52	COCCNC(=O)Cc1ccc(N)cc1
43 to 45	COC(=O)c1cc(OC)ccn1
79 to 81	CCOC(=O)c1ccn(-c2ccccc2N)n1
56 to 58	CC(C)C(=O)NC1(C#N)CCCC1
165 to 167	COc1cc(C=O)cc(OC)c1OCC(N)=O
49 to 51	Cc1cc2cc(Cl)cc(Cl)c2[nH]1
88 to 90	COc1cc(NC(=O)c2ccco2)c(C(=O)O)cc1OC
35 to 37	O=C(Nc1cccc(Cl)c1)OCC(F)(F)F
72 to 74	COC(=O)c1ccc(OCCBr)c(Cl)c1

melting point [°C]	SMILES
159 to 161	Nc1cnn(-c2ccc(C(F)(F)F)cc2)c1
88 to 90	CCOC(=O)c1ccc(C(=O)O)nc1C
48 to 50	COC1(OC)CC(CO)(CO)C1
156 to 158	Nc1cccc(S(=O)(=O)N2CCCC2)c1
187 to 189	O=C(O)c1ccc(Br)cc1Oc1ccc(F)cc1
151 to 153	CCN(CC)c1nc2ccccc2[nH]c1=O
255 to 257	O=C(O)c1c(C(F)(F)F)n[nH]c1C(F)(F)F
169 to 171	COc1cc(Cl)ccc1S(N)(=O)=O
184 to 186	CS(=O)(=O)CCC(NC(=O)c1ccc(Cl)cc1)C(=O)O (configuration not stated)
110 to 112	CC1CN(S(=O)(=O)c2ccc(NC(=O)CCl)cc2)CC(C)O1 (configuration not stated)
239 to 241	O=C1CNC(=O)c2sccc2N1
149 to 151	Cc1nn(-c2ccccc2)c(C)c1NC(=O)CCl
158 to 160	O=C(O)C1CCN(c2ccc(Cl)cc2)C1=O (configuration not stated)
140 to 142	COc1ccc(C2(C(=O)O)CCCC2)cc1OC
318 to 320	O=C1NC(=O)C(Cc2ccccc2)(Cc2ccccc2)N1
118 to 120	COc1cc(C)ccc1OCC(=O)O
219 to 221	COc1ccnc(NCc2cccc(C(=O)O)c2)n1
89 to 91	CCc1oc2ccccc2c1C(=O)O
75 to 77	Nc1cc([N+](=O)[O-])ccc1OC(F)F

SMILES	melting point [°C]
CN(C)c1ncnc(Cl)c1CCl	64 to 66
CCCc1c(C(=O)O)cnn1C1CCCC1	113 to 115
CCc1cccc2c(C3CCNCC3)c[nH]c12	183 to 185
CC(C)(C)C1CNC(=O)C1 (configuration not stated)	130 to 132
Cc1csc(C2(N)CCCC2)n1	59 to 61
O=[N+]([O-])c1ncn(CCO)n1	76 to 78
Cc1nnc(CCl)o1	32 to 40
c1ccc2[nH]c(C3CCNCC3)cc2c1	192 to 194
